Data taken from US7001921B1, “Cell adhesion inhibitors” (Biogen Idec MA Inc., priority 1995, dated 2006).

Biological target: T1, VLA4 (Homo sapiens, UniProt P05556+P13612)
T1 construct: endogenous in cells; host or cells: Ramos cells
Test: Inhibition of VLA4-dependent adhesion to BSA-CS1 (labelled Ramos cells)
Type: cell-based
Details: binding of BCECF-AM labelled Ramos cells to CS1 peptide-coated wells, 2 mM MnCl2, 30 minutes at room temperature; IC50 range
Procedure, shortened: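 Ramos cells labelled with 2 μM BCECF-AM, with 2 mM MnCl2 added to upregulate VLA4, were incubated with test compound (final 0.01 nM–10 μM, triplicate) on BSA-CS1-coated wells for 30 min at room temperature in TRIS buffer pH 7.4. After washing, bound fluorescence was read, with uncoated wells giving non-specific binding.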

T1 sequence (P13612 34-1032): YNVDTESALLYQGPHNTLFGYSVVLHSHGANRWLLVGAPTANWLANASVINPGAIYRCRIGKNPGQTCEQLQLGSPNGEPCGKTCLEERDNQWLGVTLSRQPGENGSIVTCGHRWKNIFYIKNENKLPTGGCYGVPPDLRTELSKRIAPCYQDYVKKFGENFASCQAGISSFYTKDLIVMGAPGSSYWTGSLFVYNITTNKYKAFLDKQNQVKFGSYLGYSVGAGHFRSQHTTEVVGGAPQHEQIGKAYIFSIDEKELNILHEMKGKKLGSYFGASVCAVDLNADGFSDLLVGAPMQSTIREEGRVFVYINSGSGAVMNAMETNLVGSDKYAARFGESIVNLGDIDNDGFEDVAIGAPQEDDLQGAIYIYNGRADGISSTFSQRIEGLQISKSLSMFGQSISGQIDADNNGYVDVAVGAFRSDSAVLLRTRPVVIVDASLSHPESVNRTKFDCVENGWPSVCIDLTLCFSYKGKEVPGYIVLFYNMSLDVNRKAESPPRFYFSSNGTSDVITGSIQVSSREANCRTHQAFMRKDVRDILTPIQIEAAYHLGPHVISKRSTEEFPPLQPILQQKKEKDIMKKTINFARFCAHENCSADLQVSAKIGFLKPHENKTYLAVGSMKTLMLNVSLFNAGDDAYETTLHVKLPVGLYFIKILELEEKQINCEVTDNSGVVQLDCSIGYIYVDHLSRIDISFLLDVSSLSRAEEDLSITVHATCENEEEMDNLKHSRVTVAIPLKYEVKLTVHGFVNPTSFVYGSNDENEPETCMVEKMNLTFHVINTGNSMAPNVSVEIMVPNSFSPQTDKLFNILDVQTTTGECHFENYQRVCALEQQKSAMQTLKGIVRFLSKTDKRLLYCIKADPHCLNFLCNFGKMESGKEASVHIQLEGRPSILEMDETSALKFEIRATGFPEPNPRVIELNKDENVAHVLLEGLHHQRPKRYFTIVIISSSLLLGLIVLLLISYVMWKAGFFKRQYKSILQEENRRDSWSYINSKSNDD
T1 sequence (P05556 21-798): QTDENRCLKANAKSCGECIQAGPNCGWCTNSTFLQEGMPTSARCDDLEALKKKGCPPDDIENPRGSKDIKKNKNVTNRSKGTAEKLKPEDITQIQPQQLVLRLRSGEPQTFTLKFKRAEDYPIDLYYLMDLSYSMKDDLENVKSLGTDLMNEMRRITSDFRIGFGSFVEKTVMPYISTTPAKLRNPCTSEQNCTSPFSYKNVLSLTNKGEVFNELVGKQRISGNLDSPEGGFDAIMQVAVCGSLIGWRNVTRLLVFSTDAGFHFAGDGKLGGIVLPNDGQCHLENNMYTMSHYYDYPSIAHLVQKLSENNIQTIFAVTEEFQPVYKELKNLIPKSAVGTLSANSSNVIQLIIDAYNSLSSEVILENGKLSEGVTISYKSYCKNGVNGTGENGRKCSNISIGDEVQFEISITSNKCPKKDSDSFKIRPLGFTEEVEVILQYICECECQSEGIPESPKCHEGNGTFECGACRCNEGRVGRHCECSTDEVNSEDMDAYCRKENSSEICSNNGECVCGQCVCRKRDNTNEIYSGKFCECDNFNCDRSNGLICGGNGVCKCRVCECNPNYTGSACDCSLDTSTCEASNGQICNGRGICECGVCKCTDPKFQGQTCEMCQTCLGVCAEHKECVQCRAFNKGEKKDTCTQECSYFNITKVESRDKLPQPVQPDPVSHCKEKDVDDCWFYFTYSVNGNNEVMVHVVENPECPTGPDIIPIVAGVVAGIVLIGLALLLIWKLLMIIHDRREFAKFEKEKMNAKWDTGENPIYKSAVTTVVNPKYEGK

Compound	IC50
Cc1ccccc1NC(=O)Nc1ccc(CC(=O)NC(CC(C)C)C(=O)NC(CC(=O)O)c2ccc(C(=O)O)cc2)cc1 (centres unmarked) [compound 1321]	< 50 nM
COc1nc(CC(=O)NC(CC(C)C)C(=O)NC(CC(=O)O)c2ccc3c(c2)OCO3)ccc1NC(=O)Nc1ccccc1C (centres unmarked) [compound 1336]	< 50 nM
CN=C(Nc1ccccc1)Nc1ccc(CC(=O)NC(CC(C)C)C(=O)NC(CC(=O)O)c2ccc3c(c2)OCO3)cc1 (centres unmarked) [compound 1380]	50 to 10000 nM
COC(=O)c1ccc(C(CC(=O)O)NC(=O)C(CCCCNS(C)(=O)=O)NC(=O)Cc2ccc(NC(=O)Nc3ccccc3C)cc2)cc1 (centres unmarked) [compound 1382]	< 50 nM
CC(C)CC(NC(=O)Cc1ccc(Nc2ncc[nH]2)cc1)C(=O)NC(CC(=O)O)c1ccc2c(c1)OCO2 (centres unmarked) [compound 1390]	50 to 10000 nM

Now from value to compound:

IC50	Compound
< 50 nM	CC(=O)NCCCCC(NC(=O)Cc1ccc(NC(=O)Nc2ccccc2C)cc1)C(=O)NC(CC(=O)O)c1ccc2c(c1)OCO2 (centres unmarked) [compound 1270]
< 50 nM	Cc1ccccc1NC(=O)Nc1ccc(CC(=O)NC(CC(C)C)C(=O)NC(CC(=O)O)c2ccc3c(c2)OCO3)cc1 (centres unmarked) [compound 1282]
< 50 nM	Cc1ccccc1NC(=O)Nc1ccc(CC(=O)NC(CCCCNS(C)(=O)=O)C(=O)NC(CC(=O)O)c2ccc3c(c2)OCO3)cc1 (centres unmarked) [compound 1294]
